{"source": "patent USRE50715E1", "about": "“Synthetic biochemistry molecular purge valve module that maintain co-factor balance” (The Regents of the University of California, priority 2014, dated 2025)", "molecules": {"B1": {"name": "L. lactis NADH oxidase (H2O forming), NoxE, SEQ ID NO: 10 (Lactococcus lactis subsp. lactis Il1403) (protein)", "chain": "MKIVVIGTNHAGIATANTLIDRYPGHEIVMIDRNSNMSYLGCGTAIWVGRQIEKPDELFYAKAEDFEKKGVKILTETEVSEIDFTNKMIYAKSKTGEKITESYDKLVLATGSRPIIPNLPGKDLKGIHFLKLFQEGQAIDEEFAKNDVKRIAVIGAGYIGTEIAEAAKRRGKEVLLFDAESTSLASYYDEEFAKGMDENLAQHGIELHFGELAQEFKANEKGHVSQIVTNKSTYDVDLVINCIGFTANSALAGEHLETFKNGAIKVDKHQQSSDPDVSAVGDVATIYSNALQDFTYIALASNAVRSGIVAGHNIGGKSIESVGVQGSNGISIFGYNMTSTGLSVKAAKKIGLEVSFSDFEDKQKAWFLHENNDSVKIRIVYETKNRRIIGAQLASKSEIIAGNINMFSLAIQEKKTIDELALLDLFFLPHFNSPYNYMTVAALNAK"}, "B2": {"name": "G. stearothermophilus pyruvate dehydrogenase complex, engineered mutant (GsPDH-NADP, PDH^NADPH), E3 mutant E206V, G207R, A208K, S213R (E3^NADPH SEQ ID NO: 7; … (protein)", "chain": "MVVGDFAIETETLVVGAGPGGYVAAIRAAQLGQKVTIVEKGNLGGVCLNVGCIPSKALISASHRYEQAKHSEEMGIKAENVTIDFAKVQEWKASVVKKLTGGVEGLLKGNKVEIVKGEAYFVDANTVRVVNGDSAQTYTFKNAIIATGSRPIELPNFKFSNRILDSTGALNLGEVPKSLVVIGGGYIAIELATAYANFGTKVTILVRKGEILRGFEKQMAAIIKKRLKKKGVEVVTNALAKGAEEREDGVTVTYEANGETKTIDADYVLVTVGRRPNTDELGLEQIGIKMTNRGLIEVDQQCRTSVPNIFAIGDIVPGPALAHKASYEGKVAAEAIAGHPSAVDYVAIPAVVFSDPECASVGYFEQQAKDEGIDVIAAKFPFAANGRALALNDTDGFLKLVVRKEDGVIIGAQIIGPNASDMIAELGLAIEAGMTAEDIALTIHAHPTLGEIAMEAAEVALGTPIHIITK", "notes": "made in house; host or cells: E. coli"}, "B3": {"name": "G. stearothermophilus pyruvate dehydrogenase complex (GsPDH-NAD+, PDH^NADH), wild type (E1a SEQ ID NO: 1, E1b SEQ ID NO: 2, E2 SEQ ID NO: 3, E3^NADH SEQ ID NO: … (protein)", "chain": "MVVGDFAIETETLVVGAGPGGYVAAIRAAQLGQKVTIVEKGNLGGVCLNVGCIPSKALISASHRYEQAKHSEEMGIKAENVTIDFAKVQEWKASVVKKLTGGVEGLLKGNKVEIVKGEAYFVDANTVRVVNGDSAQTYTFKNAIIATGSRPIELPNFKFSNRILDSTGALNLGEVPKSLVVIGGGYIGIELGTAYANFGTKVTILEGAGEILSGFEKQMAAIIKKRLKKKGVEVVTNALAKGAEEREDGVTVTYEANGETKTIDADYVLVTVGRRPNTDELGLEQIGIKMTNRGLIEVDQQCRTSVPNIFAIGDIVPGPALAHKASYEGKVAAEAIAGHPSAVDYVAIPAVVFSDPECASVGYFEQQAKDEGIDVIAAKFPFAANGRALALNDTDGFLKLVVRKEDGVIIGAQIIGPNASDMIAELGLAIEAGMTAEDIALTIHAHPTLGEIAMEAAEVALGTPIHIITK"}}, "key": {"[1]": {"molecular_target": "T1, G. stearothermophilus pyruvate dehydrogenase complex (GsPDH-NAD+, PDH^NADH), wild type (E1a SEQ ID NO: 1, E1b SEQ ID NO: 2, E2 SEQ ID NO: 3, E3^NADH SEQ ID NO: (Geobacillus stearothermophilus, UniProt P11959))", "T1 construct": "made in house; host or cells: E. coli", "assay": "PDH kinetics, monitoring the reduction of NAD(P)^+ at 340 nm", "assay_type": "biochemical", "experimental": "(§1) The individual domains of G. stearothermophilus PDH were partially purified from E. coli lysates by heat prior to modification and reconstitution of the PDH complex. E1αβ, E2, or E3 containing lysates were incubated at 65° C. for 35 minutes to heat denature E. coli proteins followed by centrifugation at 30,000×g for 20 min to pellet the precipitated proteins. […] Next, the E2 domain was lipoated in the heated extract by the addition of 1 mM (±)-α-lipoic acid, 2 mM ATP, 3 mM MgCl2, and 50 μg of purified 6×His-LplA. The lipoation reaction was then allowed to proceed with gentle mixing overnight at 25° C., yielding lipoated E2 (E2lip). After lipoation, E1αβ, E2lip, and E3 were mixed in a 3:1:3 molar ratio and incubated for at least 1 hour at 25° C. to form the active GsPDH complex. The GsPDH complex was then isolated by ultracentrifugation (Beckman) for 4 hours at 95,000×g. […] The reconstituted complex was stored at 4° C. until use."}, "[2]": {"molecular_target": "T2, L. lactis NADH oxidase (H2O forming), NoxE, SEQ ID NO: 10 (Lactococcus lactis, UniProt Q9CIG9)", "T2 sequence (Q9CIG9 1-446)": "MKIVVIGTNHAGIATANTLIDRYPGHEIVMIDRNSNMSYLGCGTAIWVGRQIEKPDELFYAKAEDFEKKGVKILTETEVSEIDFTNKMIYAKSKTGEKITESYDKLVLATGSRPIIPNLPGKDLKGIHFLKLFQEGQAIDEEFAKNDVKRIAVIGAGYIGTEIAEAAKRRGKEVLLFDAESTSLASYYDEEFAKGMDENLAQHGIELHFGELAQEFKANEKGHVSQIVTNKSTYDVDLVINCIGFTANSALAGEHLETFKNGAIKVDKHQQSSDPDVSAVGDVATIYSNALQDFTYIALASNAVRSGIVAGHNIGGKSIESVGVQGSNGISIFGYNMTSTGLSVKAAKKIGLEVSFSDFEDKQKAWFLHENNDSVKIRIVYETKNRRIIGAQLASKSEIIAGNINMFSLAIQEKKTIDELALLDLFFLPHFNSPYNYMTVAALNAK", "assay": "NoxE kinetics, monitoring the oxidation of NAD(P)H at 340 nm", "assay_type": "biochemical"}, "[3]": {"molecular_target": "T3, G. stearothermophilus pyruvate dehydrogenase complex, engineered mutant (GsPDH-NADP, PDH^NADPH), E3 mutant E206V, G207R, A208K, S213R (E3^NADPH SEQ ID NO: 7); E1 (Geobacillus stearothermophilus, UniProt P11959, A208K/E206V/G188A/G192A/G207R/S213R)", "T3 construct": "made in house; host or cells: E. coli", "assay": "PDH kinetics, monitoring the reduction of NAD(P)^+ at 340 nm", "assay_type": "biochemical", "experimental": "as §1"}, "[4]": {"substrate": "NC(=O)C1=CN([C@@H]2O[C@H](COP(=O)(O)OP(=O)(O)OC[C@H]3O[C@@H](n4cnc5c(N)ncnc54)[C@H](OP(=O)(O)O)[C@@H]3O)[C@@H](O)[C@H]2O)C=CC1", "assay": "purified protein, by the assay type", "conditions": "other: 100 mM tris-HCl pH 7.5, 5 mM MgCl2, 5 mM KCl, 0.2 mM NAD(P)H"}, "[5]": {"substrate": "NC(=O)C1=CN([C@@H]2O[C@H](COP(=O)(O)OP(=O)(O)OC[C@H]3O[C@@H](n4cnc5c(N)ncnc54)[C@H](O)[C@@H]3O)[C@@H](O)[C@H]2O)C=CC1", "assay": "purified protein, by the assay type", "conditions": "other: 100 mM tris-HCl pH 7.5, 5 mM MgCl2, 5 mM KCl, 0.2 mM NAD(P)H"}, "[6]": {"substrate": "NC(=O)c1ccc[n+]([C@@H]2O[C@H](COP(=O)(O)OP(=O)(O)OC[C@H]3O[C@@H](n4cnc5c(N)ncnc54)[C@H](O)[C@@H]3O)[C@@H](O)[C@H]2O)c1", "assay": "PDH kinetics, monitoring the reduction of NAD(P)^+ at 340 nm", "assay_type": "biochemical, G. stearothermophilus", "conditions": "other: 50 mM Tris pH 7.5, 5 mM MgCl2, 5 mM pyruvate, 1 mM CoA, 0.5 mM NAD(P)+"}, "[7]": {"substrate": "NC(=O)c1ccc[n+]([C@@H]2O[C@H](COP(=O)(O)OP(=O)(O)OC[C@H]3O[C@@H](n4cnc5c(N)ncnc54)[C@H](OP(=O)(O)O)[C@@H]3O)[C@@H](O)[C@H]2O)c1", "assay": "PDH kinetics, monitoring the reduction of NAD(P)^+ at 340 nm", "assay_type": "biochemical, G. stearothermophilus", "conditions": "other: 50 mM Tris pH 7.5, 5 mM MgCl2, 5 mM pyruvate, 1 mM CoA, 0.5 mM NAD(P)+"}, "[8]": {"substrate": "NC(=O)c1ccc[n+]([C@@H]2O[C@H](COP(=O)(O)OP(=O)(O)OC[C@H]3O[C@@H](n4cnc5c(N)ncnc54)[C@H](O)[C@@H]3O)[C@@H](O)[C@H]2O)c1", "assay": "cells, lysate or membranes named", "conditions": "other: 50 mM Tris pH 7.5, 5 mM MgCl2, 5 mM pyruvate, 1 mM CoA, 0.5 mM NAD(P)+"}, "[9]": {"substrate": "NC(=O)c1ccc[n+]([C@@H]2O[C@H](COP(=O)(O)OP(=O)(O)OC[C@H]3O[C@@H](n4cnc5c(N)ncnc54)[C@H](OP(=O)(O)O)[C@@H]3O)[C@@H](O)[C@H]2O)c1", "assay": "cells, lysate or membranes named", "conditions": "other: 50 mM Tris pH 7.5, 5 mM MgCl2, 5 mM pyruvate, 1 mM CoA, 0.5 mM NAD(P)+"}}}
{"molecule": "NC(=O)c1ccc[n+]([C@@H]2O[C@H](COP(=O)(O)OP(=O)(O)OC[C@H]3O[C@@H](n4cnc5c(N)ncnc54)[C@H](O)[C@@H]3O)[C@@H](O)[C@H]2O)c1", "note": "[NAD+, nicotinamide adenine dinucleotide]", "values": [{"measurement": "kcat ratio, NAD^+ vs NADP^+", "setting": "[1]; kcat higher with NAD^+ than NADP^+", "result": 11.2, "unit": "times"}, {"measurement": "kcat/Km ratio, NAD^+ vs NADP^+", "setting": "[1]; kcat/Km higher with NAD^+ than NADP^+", "result": 1150, "unit": "times"}]}
{"molecule": "NC(=O)C1=CN([C@@H]2O[C@H](COP(=O)(O)OP(=O)(O)OC[C@H]3O[C@@H](n4cnc5c(N)ncnc54)[C@H](O)[C@@H]3O)[C@@H](O)[C@H]2O)C=CC1", "note": "[NADH]", "values": [{"measurement": "Kcat ratio, NADH vs NADPH", "setting": "[2]; Kcat greater with NADH than NADPH", "result": 248.8, "unit": "times"}, {"measurement": "kcat/Km ratio, NADH vs NADPH", "setting": "[2]; kcat/Km greater with NADH than NADPH", "result": 9900, "unit": "times"}]}
{"molecule": "NC(=O)c1ccc[n+]([C@@H]2O[C@H](COP(=O)(O)OP(=O)(O)OC[C@H]3O[C@@H](n4cnc5c(N)ncnc54)[C@H](OP(=O)(O)O)[C@@H]3O)[C@@H](O)[C@H]2O)c1", "note": "[NADP+]", "values": [{"measurement": "kcat ratio, NADP^+ vs NAD+", "setting": "[3]; kcat higher with NADP^+ than NAD+", "result": 7.3, "unit": "times"}, {"measurement": "kcat/Km ratio, NADP^+ vs NAD+", "setting": "[3]; kcat/Km higher with NADP^+ than NAD+", "result": 21, "unit": "times"}]}
{"molecule": "B1", "values": [{"measurement": "Km", "setting": "[4]", "result": "2951.5 ± 770", "unit": "µM"}, {"measurement": "Km", "setting": "[5]", "result": "74.93 ± 26", "unit": "µM"}]}
{"molecule": "B2", "values": [{"measurement": "Km", "setting": "[6]", "result": "452.7 ± 178", "unit": "µM"}, {"measurement": "Km", "setting": "[7]", "result": "157 ± 13", "unit": "µM"}]}
{"molecule": "B3", "values": [{"measurement": "Km", "setting": "[8]", "result": "13.38 ± 0.83", "unit": "µM"}, {"measurement": "Km", "setting": "[9]", "result": "1381 ± 410", "unit": "µM"}]}
